Measured values: patent publication US7772241B2, “Variolin derivatives and their use as antitumor agents” (Pharma Mar S.A., priority 2001, dated 2010)
Where two headings read alike, the source gives them in different places.

Legend:
K-562 = assay: Inhibition of cells growth by colorimetric (SRB) assay, K-562; conditions: for CC50: Homo sapiens, K562, 48 h, read-out: LC50 K-562, SRB assay, 48 hours exposure; for TGI K-562 / GI50: SRB assay, 48 hours exposure; for GI50: read-out: GI50 K-562
How it was run: (§1)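 Human tumour cells in RPMI 1640 with 10% FBS were seeded at 5×10^3 cells/well, allowed to attach for 18 h, then exposed to samples at 10 to 10^−8 μg/ml for 48 h. Growth was measured by SRB staining after TCA fixation, with absorbance read at 490 nm in triplicate wells.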

A-549 = assay: Inhibition of cells growth by colorimetric (SRB) assay, A-549; conditions: for CC50: Homo sapiens, A549, 48 h, read-out: LC50 A-549, SRB assay, 48 hours exposure; for TGI A-549 / GI50: SRB assay, 48 hours exposure; for GI50: read-out: GI50 A-549
How it was run: as §1

SK-MEL-28 = assay: Inhibition of cells growth by colorimetric (SRB) assay, SK-MEL-28; conditions: for GI50 / CC50: Homo sapiens, SK-MEL-28, 48 h; for GI50: read-out: GI50 MEL-28, SRB assay, 48 hours exposure; for CC50: read-out: LC50 MEL-28, SRB assay, 48 hours exposure; for TGI MEL-28: SRB assay, 48 hours exposure
How it was run: as §1

HT-29 = assay: Inhibition of cells growth by colorimetric (SRB) assay, HT-29; conditions: for CC50: read-out: LC50 HT-29, SRB assay, 48 hours exposure
How it was run: as §1

LoVo = assay: Inhibition of cells growth by colorimetric (SRB) assay, LoVo; conditions: for GI50: Homo sapiens, LoVo, 48 h, read-out: GI50 LOVO, SRB assay, 48 hours exposure; for TGI LOVO / CC50: SRB assay, 48 hours exposure; for CC50: read-out: LC50 LOVO
How it was run: as §1

LoVo-Dox = assay: Inhibition of cells growth by colorimetric (SRB) assay, LoVo-Dox; conditions: for GI50 / CC50: Homo sapiens, 48 h; for GI50: read-out: GI50 LOVO-DOX, SRB assay, 48 hours exposure; for CC50: read-out: LC50 LOVO-DOX, SRB assay, 48 hours exposure; for TGI LOVO-DOX: SRB assay, 48 hours exposure
How it was run: as §1

DU-145 = assay: Inhibition of cells growth by colorimetric (SRB) assay, DU-145
How it was run: as §1

LNCaP = assay: Inhibition of cells growth by colorimetric (SRB) assay, LNCaP; conditions: for CC50: read-out: LC50 LN-caP
How it was run: as §1

SK-BR-3 = assay: Inhibition of cells growth by colorimetric (SRB) assay, SK-BR-3
How it was run: as §1

IGROV-1 = assay: Inhibition of cells growth by colorimetric (SRB) assay, IGROV-1; conditions: for GI50: read-out: GI50 IGROV, SRB assay, 48 hours exposure
How it was run: as §1

IGROV-ET = assay: Inhibition of cells growth by colorimetric (SRB) assay, IGROV-ET; conditions: for GI50 / CC50: Homo sapiens, 48 h; for GI50: read-out: GI50 IGROV-ET, SRB assay, 48 hours exposure; for CC50: read-out: LC50 IGROV-ET, SRB assay, 48 hours exposure; for TGI IGROV-ET: SRB assay, 48 hours exposure
How it was run: as §1

SK-OV-3 = assay: Inhibition of cells growth by colorimetric (SRB) assay, SK-OV-3; conditions: for CC50: read-out: LC50 SKOV-3, SRB assay, 48 hours exposure; for TGI SKOV-3: SRB assay, 48 hours exposure
How it was run: as §1

PANC-1 = assay: Inhibition of cells growth by colorimetric (SRB) assay, PANC-1; conditions: for CC50: Homo sapiens, PANC-1, 48 h, read-out: LC50 PANC-1, SRB assay, 48 hours exposure; for TGI PANC-1 / GI50: SRB assay, 48 hours exposure; for GI50: read-out: GI50 PANC-1
How it was run: as §1

HMEC1 = assay: Inhibition of cells growth by colorimetric (SRB) assay, HMEC1; conditions: for GI50: Homo sapiens, HMEC-1, 48 h, read-out: GI50 H-MEC-1, SRB assay, 48 hours exposure; for TGI H-MEC-1 / CC50: SRB assay, 48 hours exposure; for TGI H-MEC-1: in M (unit assumed); for CC50: read-out: LC50 H-MEC-1
Text: The finality of these assays is to interrupt the growth of a “in vitro” tumor cell culture by means a continued exhibition of the cells to the sample to be testing.
This form of the assay employs 96 well cell culture microplates of 9 mm diameter (Faircloth, 1988; Mosmann, 1983). Most of the cell lines are obtained from American Type Culture Collection (ATCC) derived from different human cancer types.
Cells are maintained in RPMI 1640 10% FBS, supplemented with 0.1 g/l penicillin and 0.1 g/l streptomycin sulphate and then incubated at 37° C., 5% CO2 and 98% humidity. For the experiments, cells were harvested from subconfluent cultures using trypsin and resuspended in fresh medium before plating.
Cells are seeded in 96 well microtiter plates, at 5×10^3 cells per well in aliquots of 195 μl medium, and they are allowed to attach to the plate surface by growing in drug free medium for 18 hours. Afterward, samples are added in aliquots of 5 μl in a ranging from 10 to 10^−8 μg/ml, dissolved in DMSO/EtOH/PBS (0.5:0.5:99). After 48 hours exposure, the antitumor effect are measured by the SRB methodology: cells are fixed by adding 50 μl of cold 50% (wt/vol) trichloroacetic acid (TCA) and incubating for 60 minutes at 4° C. Plates are washed with deionized water and dried. One hundred μl of SRB solution (0.4% wt/vol in 1% acetic acid) is added to each microtiter well and incubated for 10 minutes at room temperature. Unbound SRB is removed by washing with 1% acetic acid. Plates are air dried and bound stain is solubilized with Tris buffer. Optical densities are read on a automated spectrophotometric plate reader at a single wavelength of 490 nm.
The values for mean +/−SD of data from triplicate wells are calculated. Some parameters for cellular responses can be calculated: GI=growth inhibition, TGI=total growth inhibition (cytostatic effect) and LC=cell killing (cytotoxic effect).

Cl.Nc1nccc(-c2c3cc4ccccc4nc3n3c(N)nccc23)n1 [Compound 42]
CC50 (K-562): 14600 nM
TGI K-562 (K-562): 7.69E−06
GI50 (K-562): 4070 nM
CC50 (A-549): 14300 nM
TGI A-549 (A-549): 2.26E−06
GI50 (A-549): 135 nM
GI50 (SK-MEL-28): 2560 nM
CC50 (SK-MEL-28): 25000 nM
TGI MEL-28 (SK-MEL-28): 2.50E−05
GI50 (HT-29; Homo sapiens, HT-29, 48 h, read-out: GI50 HT-29, SRB assay, 48 hours exposure): 1990 nM
CC50 (HT-29; Homo sapiens, HT-29, 48 h): 25000 nM
TGI HT-29 (HT-29; SRB assay, 48 hours exposure): 2.50E−05
GI50 (LoVo): 884 nM
TGI LOVO (LoVo): 5.42E−06
CC50 (LoVo): 25000 nM
GI50 (LoVo-Dox): 954 nM
CC50 (LoVo-Dox): 15500 nM
TGI LOVO-DOX (LoVo-Dox): 3.62E−06
TGI DU-145 (DU-145; SRB assay, 48 hours exposure): 6.10E−06
GI50 (DU-145; read-out: GI50 DU-145, SRB assay, 48 hours exposure): 1480 nM
CC50 (DU-145; read-out: LC50 DU-145, SRB assay, 48 hours exposure): 21100 nM
GI50 (LNCaP; Homo sapiens, LNCaP, 48 h, read-out: GI50 LN-caP, SRB assay, 48 hours exposure): 432 nM
TGI LN-caP (LNCaP; SRB assay, 48 hours exposure): 1.25E−06
CC50 (LNCaP; SRB assay, 48 hours exposure): 5970 nM
TGI SK-BR-3 (SK-BR-3; SRB assay, 48 hours exposure): 3.22E−07
GI50 (SK-BR-3; read-out: GI50 SK-BR-3, SRB assay, 48 hours exposure): 67.7 nM
CC50 (SK-BR-3; read-out: LC50 SK-BR-3, SRB assay, 48 hours exposure): 1670 nM
GI50 (IGROV-1; Homo sapiens, IGROV-1, 48 h): 1560 nM
TGI IGROV (IGROV-1; SRB assay, 48 hours exposure): 5.15E−06
CC50 (IGROV-1; read-out: LC50 IGROV, SRB assay, 48 hours exposure): 13000 nM
GI50 (IGROV-ET): 1700 nM
CC50 (IGROV-ET): 15400 nM
TGI IGROV-ET (IGROV-ET): 5.45E−06
GI50 (SK-OV-3; Homo sapiens, SK-OV-3, 48 h, read-out: GI50 SKOV-3, SRB assay, 48 hours exposure): 1080 nM
CC50 (SK-OV-3; Homo sapiens, SK-OV-3, 48 h): 21500 nM
TGI SKOV-3 (SK-OV-3): 5.32E−06
CC50 (PANC-1): 25000 nM
TGI PANC-1 (PANC-1): 2.50E−05
GI50 (PANC-1): 8870 nM
GI50 (HMEC1): 114 nM
TGI H-MEC-1 (HMEC1): 5.32E−07
CC50 (HMEC1): 1860 nM

Cc1ccc2c(-c3ccnc(N)n3)c3ccnc(N)n3c2n1.Cl [Compound 44]
CC50 (K-562): 27500 nM
TGI K-562 (K-562): 2.75E−05
GI50 (K-562): 4170 nM
CC50 (A-549): 27500 nM
TGI A-549 (A-549): 2.75E−05
GI50 (A-549): 9170 nM
GI50 (SK-MEL-28): 601 nM
CC50 (SK-MEL-28): 8950 nM
TGI MEL-28 (SK-MEL-28): 2.11E−06
CC50 (HT-29; Homo sapiens, HT-29, 48 h): 27500 nM
TGI HT-29 (HT-29; SRB assay, 48 hours exposure): 1.09E−05
GI50 (HT-29; read-out: GI50 HT-29, SRB assay, 48 hours exposure): 1090 nM
GI50 (LoVo): 456 nM
TGI LOVO (LoVo): 1.13E−06
CC50 (LoVo): 2750 nM
GI50 (LoVo-Dox): 777 nM
CC50 (LoVo-Dox): 23500 nM
TGI LOVO-DOX (LoVo-Dox): 3.27E−06
GI50 (DU-145; Homo sapiens, DU-145, 48 h, read-out: GI50 DU-145, SRB assay, 48 hours exposure): 475 nM
TGI DU-145 (DU-145; SRB assay, 48 hours exposure): 1.51E−06
TGI LN-caP (LNCaP; SRB assay, 48 hours exposure): 7.85E−07
GI50 (LNCaP; read-out: GI50 LN-caP, SRB assay, 48 hours exposure): 351 nM
CC50 (LNCaP; SRB assay, 48 hours exposure): 1760 nM
GI50 (SK-BR-3; Homo sapiens, SK-BR-3, 48 h, read-out: GI50 SK-BR-3, SRB assay, 48 hours exposure): 612 nM
CC50 (SK-BR-3; Homo sapiens, SK-BR-3, 48 h, read-out: LC50 SK-BR-3, SRB assay, 48 hours exposure): 6310 nM
TGI SK-BR-3 (SK-BR-3; SRB assay, 48 hours exposure): 1.61E−06
GI50 (IGROV-1; Homo sapiens, IGROV-1, 48 h): 1080 nM
CC50 (IGROV-1; Homo sapiens, IGROV-1, 48 h, read-out: LC50 IGROV, SRB assay, 48 hours exposure): 24600 nM
TGI IGROV (IGROV-1; SRB assay, 48 hours exposure): 6.34E−06
GI50 (IGROV-ET): 568 nM
CC50 (IGROV-ET): 17200 nM
TGI IGROV-ET (IGROV-ET): 1.87E−06
CC50 (SK-OV-3; Homo sapiens, SK-OV-3, 48 h): 27500 nM
TGI SKOV-3 (SK-OV-3): 2.75E−05
CC50 (PANC-1): 27500 nM
TGI PANC-1 (PANC-1): 9.94E−06
GI50 (PANC-1): 1710 nM
GI50 (HMEC1): 158 nM
TGI H-MEC-1 (HMEC1): 3.07E−07
CC50 (HMEC1): 1310 nM
